The results in this text go back to patent publication US5164388A, “Heterocyclic peptide renin inhibitors” (Abbott Laboratories, priority 1991, dated 1992).

pIC50: −log10 of the molar value.

In the experiment the target is T1, human renal renin (Homo sapiens, UniProt P00797).
T1 construct: human renal renin, free from acid proteolytic activity; from tissue
T1 sequence (P00797 67-406): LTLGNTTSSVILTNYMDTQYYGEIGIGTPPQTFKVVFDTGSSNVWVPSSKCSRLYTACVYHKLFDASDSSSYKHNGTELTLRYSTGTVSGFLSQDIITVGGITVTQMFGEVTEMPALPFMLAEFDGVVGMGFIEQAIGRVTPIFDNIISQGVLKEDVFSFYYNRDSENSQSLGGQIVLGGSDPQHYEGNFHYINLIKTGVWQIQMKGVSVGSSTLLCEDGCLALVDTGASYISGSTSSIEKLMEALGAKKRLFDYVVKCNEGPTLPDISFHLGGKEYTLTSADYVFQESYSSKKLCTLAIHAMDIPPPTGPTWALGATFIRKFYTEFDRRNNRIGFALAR
Kind of experiment: Inhibition of human renal renin in vitro (angiotensin I formed, radioimmunoassay). The experiment is classed as biochemical. Particulars: human angiotensinogen substrate, 37 degrees C., pH 6.0. How it is done:
The novel compounds of the present invention are also useful for treating congestive heart failure. […] At the end of the incubation, the amount of angiotensin I formed is measured by radioimmunoassay and the molar concentration required to cause 50% inhibition, expressed as the IC50, is calculated.
`CCCCC(C(=O)N[C@@H](CC1CCCCC1)[C@@H](O)[C@@H](O)CC(C)C)N1CCCC(Cc2ccccc2)C1=O` (mixture of isomers) [Example 56A, 2(RS)-(3-Benzyl-2-oxo-1-piperidin-1-yl)-hexanoic acid Amide of 2(S)-Amino-1-cyclohexyl-3(R),4(S)-dihydroxy-6-heptane]: the pIC50 is 6.39. With `CC(C)C[C@H](O)[C@H](O)[C@H](CC1CCCCC1)NC(=O)C(Cc1cnc[nH]1)N1CCC(Cc2ccccc2)(NC(=O)OCc2ccccc2)C1=O` (single isomer, unassigned) [Example 63B] the figure was 7.82; with `CC(C)C[C@H](O)[C@H](O)[C@H](CC1CCCCC1)NC(=O)C(Cc1cnc[nH]1)N1CCC(Cc2ccccc2)(NC(=O)OCc2ccccc2)C1=O` (single isomer, unassigned) [Example 63C], 8.35; with `CC(C)C[C@H](O)[C@H](O)[C@H](CC1CCCCC1)NC(=O)C(Cc1cnc[nH]1)N1CCC[C@@](Cc2ccccc2)(NC(=O)OCc2ccccc2)C1=O` (single isomer, unassigned) [Example 87, (2R or 2S)-((3S)-(Benzyloxycarbonyl)amino)-3-phenylmethyl-2-oxo-1-piperidinyl)-3-(4-imidazolyl)propionic acid amide of (2S,3R,4S)-2-amino-1-cyclohexyl-3,4-dihydroxy-6-methylheptane], 8.85. With `CC(C)C[C@H](O)[C@H](O)[C@H](CC1CCCCC1)NC(=O)C(Cc1cnc[nH]1)N1CCC[C@](Cc2ccccc2)(NC(=O)OCc2ccccc2)C1=O` (single isomer, unassigned) [Example 88, (2R or 2S)-((3R)-((Benzyloxycarbonyl)amino)-3-phenylmethyl-2-oxo-1-piperidinyl)-3-(4-imidazolyl)propionic acid amide of (2S,3R,4S)-2-amino-1-cyclohexyl-3,4-dihydroxy-6-methylheptane] the figure was 7.55.

As to `CCCCC(C(=O)N[C@@H](CC1CCCCC1)[C@@H](O)[C@@H](O)CC(C)C)N1CCN(c2ncccn2)CC1` (stereo partly drawn) [Example 12A, 2-(4-(2-Pyrimidyl)-piperazin-1-yl)-hexanoic acid Amide of 2(S)-Amino-1-cyclohexyl-3(R),4(S)-dihydroxy-6-methylheptane], the negative-log IC50 (pIC50) is 6.11. Next, `CCCCC(C(=O)N[C@@H](CC1CCCCC1)[C@@H](O)[C@@H](O)CC(C)C)N1CCC(Cc2ccccc2)CC1` (stereo partly drawn) [Example 13, 2-(4-Benzylpiperidin-1-yl)-hexanoic acid Amide of 2(S)-Amino-1-cyclohexyl-3(R),4(S)-dihydroxy-6-methylheptane]: 6.37; `CCCCC(C(=O)N[C@@H](CC1CCCCC1)[C@@H](O)[C@@H](O)CC(C)C)N1CCCC(Cc2ccccc2)C1` (stereo partly drawn) [Example 18, 2-(3-Benzylpiperidin-1-yl)-hexanoic acid Amide of 2(S)-Amino-1-cyclohexyl-3(R),4(S)-dihydroxy-6-methylheptane]: 6.04. With `CCCCC(C(=O)N[C@@H](CC1CCCCC1)[C@@H](O)[C@@H](O)CC(C)C)N1CCCC(Cc2ccccc2)C1` (stereo partly drawn) [Example 20, 2(3-Benzylpiperidin-1-yl)-hexanoic acid Amide of 2(S)-Amino-1-cyclohexyl-3(R),4(S)-dihydroxy-6-methylheptane] the figure was 6.62; with `CCCC[C@H](NC[C@@H](Cc1ccccc1)NC(=O)OCc1ccccc1)C(=O)OC` [Example 21], 7.21. Regarding `CCCC[C@@H](C(=O)OC)N(CC(=O)OCc1ccccc1)C[C@@H](Cc1ccccc1)NC(=O)OCc1ccccc1` [Example 22], the negative-log IC50 (pIC50) was 6.52. Next, `CCCC[C@@H](C(=O)N[C@@H](CC1CCCCC1)[C@@H](O)[C@@H](O)CC(C)C)N1CC(=O)N[C@H](Cc2ccccc2)C1` [Example 24]: 6.77; `CCCCC(C(=O)N[C@@H](CC1CCCCC1)[C@@H](O)[C@@H](O)CC(C)C)N1CCN(Cc2ccccc2)CC1` (stereo partly drawn) [Example 32A, 2-(4-Benzyl-piperazin-1-yl)-hexanoic acid Amide of 2(S)-Amino-1-cyclohexyl-3(R),4(S)-dihydroxy-6-methylheptane]: 6.09.

In general, pIC50 refers to the negative decadic logarithm of the IC50, by convention in mol/L. Read a high pIC50 as a low IC50.
